One assay has as its system HepG2. Description: cells. To be noted: Homo sapiens, HepG2, 72 h.
In assay [1] the target is PI3-kinase p110-delta/p85-alpha (Homo sapiens, UniProt O00329). Description: Inhibition of recombinant human full length N-terminal GST-tagged PI3Kdelta (1 to 1044 residues)/PIK3R1 (1 to 724 residues) expressed in baculovirus expression system using PIP2 as substrate incubated for 2 hrs by ADP-Glo assay. (In general: ADP-Glo turns the ADP formed in a reaction into a luminescent signal.)

For assay [2], the target named is Serine/threonine-protein kinase mTOR (Homo sapiens, UniProt P42345). Put plainly: Inhibition of recombinant human N-terminal FLAG-tagged mTOR (1362 to end residues) using Ulight-4E-BP1 as substrate incubated for 30 mins by fluorescence assay.
Another assay relates to HeLa. Put plainly: Antiproliferative activity against human HeLa cells assessed as reduction in cell viability incubated for 72 hrs by MTT assay. Format: functional, cell-based. Background: Tetrazolium assays rely on reduction of a dye to a coloured formazan, in cell work by metabolically active cells.
In another assay the test system is A-375. Put plainly: Antiproliferative activity against human A375 cells assessed as reduction in cell viability incubated for 72 hrs by MTT assay. To be noted: A-375, 72 h. Format: functional, cell-based.
In another assay the test system is A549. Description: cells. The settings on record: Homo sapiens, A549, 72 h.
For the next assay, the system named is HCT-116. Put plainly: Antiproliferative activity against human HCT116 cells assessed as reduction in cell viability incubated for 72 hrs by MTT assay. Format: functional, cell-based. The settings on record: HCT-116, 72 h.
The next assay concerns MCF7. Description: cells. To be noted: Homo sapiens, MCF7, 72 h.
Assay [3] addresses Phosphatidylinositol 4,5-bisphosphate 3-kinase catalytic subunit alpha isoform (Homo sapiens, UniProt P42336). Description: Inhibition of recombinant human full length N-terminal GST-tagged PI3Kalpha (1 to 1068 residues)/PIK3R1 (1 to 724 residues) expressed in baculovirus expression system using PIP2 as substrate incubated for 1 hr by ADP-Glo assay.

Phosphatidylinositol 4,5-bisphosphate 3-kinase catalytic subunit alpha isoform, sequence (P42336 whole entry, looked up, the tested form may be a part, canonical isoform): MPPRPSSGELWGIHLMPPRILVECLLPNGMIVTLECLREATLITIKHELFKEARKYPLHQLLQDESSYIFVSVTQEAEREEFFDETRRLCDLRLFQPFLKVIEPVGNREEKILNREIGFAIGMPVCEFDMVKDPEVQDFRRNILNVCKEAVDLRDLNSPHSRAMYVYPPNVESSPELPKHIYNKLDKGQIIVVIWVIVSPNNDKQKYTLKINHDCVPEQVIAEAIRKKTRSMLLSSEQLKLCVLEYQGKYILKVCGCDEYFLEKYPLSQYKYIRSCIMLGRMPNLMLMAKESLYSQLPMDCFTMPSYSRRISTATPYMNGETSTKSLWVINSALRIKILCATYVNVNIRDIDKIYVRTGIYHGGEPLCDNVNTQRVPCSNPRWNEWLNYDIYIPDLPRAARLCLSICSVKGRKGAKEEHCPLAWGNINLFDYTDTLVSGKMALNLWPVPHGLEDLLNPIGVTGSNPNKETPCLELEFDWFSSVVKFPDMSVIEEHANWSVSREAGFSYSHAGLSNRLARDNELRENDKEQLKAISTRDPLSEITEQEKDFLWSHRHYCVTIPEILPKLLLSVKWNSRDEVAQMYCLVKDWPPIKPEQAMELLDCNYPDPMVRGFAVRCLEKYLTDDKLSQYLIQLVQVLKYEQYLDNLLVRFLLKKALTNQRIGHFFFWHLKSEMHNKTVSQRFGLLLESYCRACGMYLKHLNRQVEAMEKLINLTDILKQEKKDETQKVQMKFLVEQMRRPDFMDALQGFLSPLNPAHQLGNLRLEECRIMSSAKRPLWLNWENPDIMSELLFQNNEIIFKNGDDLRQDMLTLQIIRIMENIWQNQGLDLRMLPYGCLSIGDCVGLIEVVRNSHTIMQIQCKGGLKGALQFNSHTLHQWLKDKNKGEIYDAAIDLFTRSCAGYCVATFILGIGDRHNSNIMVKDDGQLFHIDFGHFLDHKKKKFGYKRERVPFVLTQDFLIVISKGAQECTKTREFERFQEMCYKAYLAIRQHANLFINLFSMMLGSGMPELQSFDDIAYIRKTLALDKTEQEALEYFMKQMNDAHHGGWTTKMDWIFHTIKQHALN
PI3-kinase p110-delta/p85-alpha, sequence (P27986 whole entry, the tested form may be a part): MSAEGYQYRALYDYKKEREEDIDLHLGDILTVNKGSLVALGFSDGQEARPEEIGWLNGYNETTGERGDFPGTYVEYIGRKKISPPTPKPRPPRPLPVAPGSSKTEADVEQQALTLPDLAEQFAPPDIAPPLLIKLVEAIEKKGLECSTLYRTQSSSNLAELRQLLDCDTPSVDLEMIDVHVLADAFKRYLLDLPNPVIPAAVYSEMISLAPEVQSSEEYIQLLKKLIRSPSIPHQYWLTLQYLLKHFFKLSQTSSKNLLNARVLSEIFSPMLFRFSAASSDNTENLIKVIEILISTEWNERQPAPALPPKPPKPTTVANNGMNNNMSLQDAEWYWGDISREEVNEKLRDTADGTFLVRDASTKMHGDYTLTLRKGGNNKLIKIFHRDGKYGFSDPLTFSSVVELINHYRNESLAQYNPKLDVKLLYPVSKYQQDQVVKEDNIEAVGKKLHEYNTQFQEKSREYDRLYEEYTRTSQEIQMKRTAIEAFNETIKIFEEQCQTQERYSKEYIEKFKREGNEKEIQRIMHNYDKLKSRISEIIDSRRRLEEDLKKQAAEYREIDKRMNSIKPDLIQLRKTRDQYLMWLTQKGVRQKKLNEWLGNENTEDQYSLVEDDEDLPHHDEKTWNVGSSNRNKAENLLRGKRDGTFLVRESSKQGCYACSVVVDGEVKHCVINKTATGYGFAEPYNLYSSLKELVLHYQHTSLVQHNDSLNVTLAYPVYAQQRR
PI3-kinase p110-delta/p85-alpha, sequence (O00329 whole entry, the tested form may be a part): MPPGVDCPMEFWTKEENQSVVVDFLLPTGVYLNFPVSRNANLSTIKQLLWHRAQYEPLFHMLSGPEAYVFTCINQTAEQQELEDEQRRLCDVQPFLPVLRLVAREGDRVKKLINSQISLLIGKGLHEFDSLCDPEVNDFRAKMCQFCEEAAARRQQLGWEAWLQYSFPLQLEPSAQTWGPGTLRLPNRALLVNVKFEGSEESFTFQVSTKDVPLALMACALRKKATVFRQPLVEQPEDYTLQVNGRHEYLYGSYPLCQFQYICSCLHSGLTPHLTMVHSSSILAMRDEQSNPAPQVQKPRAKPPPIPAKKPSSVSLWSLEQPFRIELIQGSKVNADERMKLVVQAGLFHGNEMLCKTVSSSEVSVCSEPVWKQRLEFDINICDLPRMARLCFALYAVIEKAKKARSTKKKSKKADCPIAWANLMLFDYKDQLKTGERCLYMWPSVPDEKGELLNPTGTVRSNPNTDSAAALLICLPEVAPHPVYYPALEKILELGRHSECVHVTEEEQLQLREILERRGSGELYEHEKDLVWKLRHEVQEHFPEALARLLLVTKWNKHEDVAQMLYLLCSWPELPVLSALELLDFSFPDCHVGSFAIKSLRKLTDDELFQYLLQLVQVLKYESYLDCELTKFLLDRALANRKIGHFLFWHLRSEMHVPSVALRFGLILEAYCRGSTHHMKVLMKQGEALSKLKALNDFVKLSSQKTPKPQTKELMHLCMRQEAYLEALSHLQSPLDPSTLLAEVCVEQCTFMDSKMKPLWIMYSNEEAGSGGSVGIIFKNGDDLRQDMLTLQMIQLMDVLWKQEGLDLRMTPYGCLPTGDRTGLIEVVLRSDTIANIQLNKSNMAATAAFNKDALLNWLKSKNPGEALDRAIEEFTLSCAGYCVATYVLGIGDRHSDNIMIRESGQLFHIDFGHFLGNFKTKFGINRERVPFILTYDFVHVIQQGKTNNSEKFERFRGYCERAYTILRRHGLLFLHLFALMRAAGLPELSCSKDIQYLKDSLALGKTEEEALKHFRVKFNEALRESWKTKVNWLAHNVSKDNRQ

For orientation: IC50 means the point on the concentration scale where inhibition reaches its midpoint. On to `COc1ncc(-c2ccc3c(c2)N(C2CC2)C(=O)CO3)cc1NS(=O)(=O)c1ccc(F)cc1`, for which the IC50 with HepG2 amounted to 14.4 µM; in [1], 0.162 µM; in [2], 0.253 µM; in the assay with HeLa it was 6.03 µM; in the assay on A-375, 23.9 µM; in the assay on A549, 3.32 µM. The values for the IC50 (in the assay on HCT-116; in the assay with MCF7; in [3]) were 24.3 µM, 35.2 µM and 0.131 µM, respectively.

Regarding `COc1ncc(-c2ccc3c(c2)N(C2CCCCC2)C(=O)CO3)cc1NS(=O)(=O)c1ccc(F)cc1`, the IC50 with HepG2 was > 40 µM; in assay [1] it was 0.406 µM; in [2], 0.873 µM; in the assay on HeLa, 6.1 µM; with A-375, > 40 µM; in the assay with A549 it was 24.6 µM. Besides, the IC50 was > 40 µM in the assay on HCT-116, 30.1 µM in the assay on MCF7 and > 1 µM in [3].

With `O=C1COc2ccc(-c3cnc4ccccc4c3)cc2N1`, the IC50 in the assay on HepG2 is 26.3 µM; in assay [1] it was > 1 µM; in assay [2], > 1 µM; in the assay with HeLa it was > 40 µM; with A-375, > 40 µM; with A549, > 40 µM. The IC50 in the assay on HCT-116 was > 40 µM; with MCF7, > 40 µM; in assay [3], > 1 µM.

Turning to `O=C1COc2ccc(-c3cnc(Cl)c(NS(=O)(=O)c4ccc(F)cc4)c3)cc2N1`, the IC50 is > 40 µM with HepG2; 0.092 µM in assay [1]; 0.328 µM in assay [2]; 15.6 µM in the assay with HeLa; > 40 µM in the assay on A-375; > 40 µM with A549. Moreover, the values for the IC50 (with HCT-116; with MCF7; in [3]) were > 40 µM, > 40 µM and 0.115 µM, respectively.

Turning to `COc1ccc(N2C(=O)COc3ccc(-c4cnc(Cl)c(NS(=O)(=O)c5ccc(F)cc5)c4)cc32)cc1`, the half-maximal inhibitory concentration (IC50) in the assay on HepG2 is > 40 µM; in [1] it was 0.0038 µM; in [2] it was 0.0198 µM; with HeLa, 8.32 µM; with A-375, 32.7 µM; in the assay on A549, 30.4 µM. Moreover, the concentration for half-maximal inhibition (IC50) in the assay with HCT-116 was 30.1 µM; in the assay with MCF7 it was 36 µM; in assay [3], 0.00043 µM.

On to `COc1ncc(-c2ccc3c(c2)N(c2ccccc2)C(=O)CO3)cc1NS(=O)(=O)c1ccc(F)cc1`, for which the IC50 was 14 µM in the assay on HepG2; 0.08 µM in assay [1]; 0.0486 µM in assay [2]; 1.53 µM with HeLa; 15.2 µM with A-375; 3.49 µM with A549. The half-inhibitory concentration (IC50) is 18.8 µM in the assay on HCT-116, 8.87 µM in the assay on MCF7 and 0.102 µM in assay [3].

On to `O=C1COc2ccc(-c3ccc(O)cc3)cc2N1C1CC1`, for which the half-maximal inhibitory concentration (IC50) was 32.7 µM in the assay with HepG2; > 1 µM in assay [1]; > 1 µM in [2]; > 40 µM in the assay with HeLa; > 40 µM in the assay with A-375; > 40 µM in the assay with A549. Moreover, the half-maximal inhibitory concentration (IC50) with HCT-116 is > 40 µM; with MCF7 it was 33 µM; in assay [3], > 1 µM.

Consider `COc1ccc(N2C(=O)COc3ccc(-c4ccc(O)cc4)cc32)cc1`, for which the concentration for half-maximal inhibition (IC50) is 10.8 µM in the assay on HepG2; > 1 µM in [1]; > 1 µM in assay [2]; 16.4 µM with HeLa; > 40 µM with A-375; > 40 µM in the assay on A549. In addition, the figures for the IC50 (in the assay with HCT-116; in the assay with MCF7; in assay [3]) were 26.1 µM, 17.3 µM and > 1 µM, respectively.

Take `O=C1COc2ccc(-c3cnc4ccccc4c3)cc2N1c1ccc(F)cc1`: the concentration for half-maximal inhibition (IC50) was 37.2 µM in the assay with HepG2; > 1 µM in assay [1]; > 1 µM in [2]; 38.8 µM in the assay with HeLa; > 40 µM in the assay on A-375; > 40 µM in the assay on A549. The IC50 in the assay with HCT-116 was > 40 µM; in the assay with MCF7 it was > 40 µM; in assay [3], > 1 µM.

As for `COc1ncc(-c2ccc3c(c2)N(C(C)C)C(=O)CO3)cc1NS(=O)(=O)c1ccc(F)cc1`, the concentration for half-maximal inhibition (IC50) in the assay on HepG2 worked out at 37.2 µM; in assay [1], 0.018 µM; in assay [2] it was 0.0036 µM; in the assay on HeLa it was 2.79 µM; in the assay with A-375, 9.95 µM; with A549 it was 4.92 µM. The figures for the concentration for half-maximal inhibition (IC50) (in the assay on HCT-116; in the assay on MCF7; in assay [3]) were 19.2 µM, 16.9 µM and 0.0453 µM, respectively.

For the compound `O=C1COc2ccc(-c3ccc(O)cc3)cc2N1c1ccc(F)cc1`, the IC50 with HepG2 is > 40 µM; in [1], > 1 µM; in assay [2], > 1 µM; in the assay on HeLa it was > 40 µM; in the assay on A-375 it was > 40 µM; with A549, > 40 µM. Moreover, the figures for the concentration for half-maximal inhibition (IC50) (in the assay on HCT-116; in the assay on MCF7; in [3]) were > 40 µM, 30.2 µM and > 1 µM, respectively.

With `CC(C)N1C(=O)COc2ccc(-c3cnc(Cl)c(NS(=O)(=O)c4ccc(F)cc4)c3)cc21`, the IC50 in the assay with HepG2 worked out at 21.5 µM; in assay [1] it was 0.0038 µM; in assay [2], 0.0043 µM; with HeLa, 5.38 µM; with A-375, 25.5 µM; with A549 it was 5.1 µM. For the same compound, the IC50 in the assay on HCT-116 worked out at 18.9 µM; with MCF7, 26.6 µM; in assay [3], 0.0155 µM.

Take `O=C1COc2ccc(-c3cnc(Cl)c(NS(=O)(=O)c4ccc(F)cc4)c3)cc2N1c1ccccc1`: the IC50 with HepG2 stood at 35.7 µM; in assay [1] it was 0.015 µM; in assay [2], 0.0153 µM; in the assay with HeLa, 10.3 µM; with A-375 it was 36.9 µM; in the assay with A549, 14.7 µM. Also, the figures for the IC50 (with HCT-116; in the assay on MCF7; in assay [3]) were 39.8 µM, > 40 µM and 0.019 µM, respectively.

Consider `O=C1COc2ccc(-c3ccc(O)cc3)cc2N1C1CCCCC1`, for which the half-inhibitory concentration (IC50) was > 40 µM in the assay with HepG2; > 1 µM in assay [1]; > 1 µM in assay [2]; > 40 µM in the assay with HeLa; > 40 µM in the assay on A-375; > 40 µM with A549. Moreover, the IC50 with HCT-116 was > 40 µM; with MCF7, > 40 µM; in assay [3], > 10 µM.

As for `O=C1COc2ccc(-c3ccc(O)cc3)cc2N1c1ccccc1`, the IC50 in the assay on HepG2 was > 40 µM; in assay [1] it was > 1 µM; in assay [2] it was > 1 µM; in the assay on HeLa, > 40 µM; in the assay with A-375, > 40 µM; in the assay on A549, > 40 µM. The IC50 in the assay on HCT-116 is > 40 µM; in the assay with MCF7 it was 29 µM; in [3], > 1 µM.

With `O=C1COc2ccc(-c3cccc(NS(=O)(=O)c4ccc(F)cc4)c3)cc2N1C1CCCCC1`, the IC50 in the assay with HepG2 is 35.9 µM; in [1], > 1 µM; in assay [2] it was > 1 µM; in the assay with HeLa, 10.8 µM; in the assay with A-375 it was 23.8 µM; in the assay with A549, 14.5 µM. Also, the IC50 in the assay on HCT-116 is 18.3 µM; in the assay with MCF7, 21.4 µM; in [3] it was > 1 µM.

Take `O=C1COc2ccc(-c3cnc4ccccc4c3)cc2N1C1CCCCC1`: the IC50 in the assay on HepG2 was > 40 µM; in assay [1], > 1 µM; in [2] it was > 1 µM; in the assay with HeLa, 19.7 µM; in the assay with A-375, > 40 µM; in the assay on A549, > 40 µM. Also, the IC50 was > 40 µM with HCT-116, > 40 µM in the assay on MCF7 and > 1 µM in [3].

With `Cc1ccc(N2C(=O)COc3ccc(-c4ccc(O)cc4)cc32)cc1`, the half-inhibitory concentration (IC50) in the assay on HepG2 is > 40 µM; in assay [1], > 1 µM; in [2], > 1 µM; with HeLa, > 40 µM; in the assay with A-375, > 40 µM; with A549, > 40 µM. For the same compound, the IC50 was > 40 µM with HCT-116, 26.2 µM in the assay on MCF7 and > 1 µM in assay [3].

Consider `CC(C)N1C(=O)COc2ccc(-c3ccc(O)cc3)cc21`, for which the half-maximal inhibitory concentration (IC50) in the assay on HepG2 was > 40 µM; in assay [1], > 1 µM; in assay [2] it was > 1 µM; with HeLa, > 40 µM; in the assay on A-375 it was > 40 µM; in the assay on A549 it was > 40 µM. For the same compound, the 50% inhibitory concentration (IC50) in the assay on HCT-116 is > 40 µM; in the assay on MCF7, > 40 µM; in assay [3], > 1 µM.

Take `O=C1COc2ccc(-c3cccc(NS(=O)(=O)c4ccc(F)cc4)c3)cc2N1c1ccc(Cl)cc1`: the IC50 was 27.8 µM with HepG2; > 1 µM in [1]; > 1 µM in assay [2]; 35 µM in the assay on HeLa; 32.5 µM in the assay with A-375; 31.6 µM in the assay with A549. Besides, the IC50 was 23.9 µM in the assay on HCT-116, 39.8 µM in the assay on MCF7 and > 1 µM in [3].

Take `O=C1COc2ccc(-c3cccc(NS(=O)(=O)c4ccc(F)cc4)c3)cc2N1c1ccccc1`: the concentration for half-maximal inhibition (IC50) in the assay with HepG2 is 30.3 µM; in assay [1], > 1 µM; in assay [2], > 1 µM; with HeLa, 17.7 µM; with A-375, > 40 µM; with A549, > 40 µM. Further, the IC50 was > 40 µM in the assay on HCT-116, > 40 µM with MCF7 and > 1 µM in assay [3].

For `CC(C)N1C(=O)COc2ccc(-c3cnc4ccccc4c3)cc21`, the IC50 with HepG2 is > 40 µM; in assay [1] it was > 1 µM; in assay [2], > 1 µM; with HeLa, 23.1 µM; in the assay with A-375 it was 39 µM; in the assay with A549 it was 24.6 µM. In addition, the IC50 was 23.2 µM in the assay on HCT-116, 22.9 µM in the assay with MCF7 and > 1 µM in [3].

Values taken from ChEMBL document CHEMBL4364276, “Discovery of 4-phenyl-2H-benzo[b][1,4]oxazin-3(4H)-one derivatives as potent and orally active PI3K/mTOR dual inhibitors” (Eur J Med Chem, 2019).
